Read-outs that look alike come from different tables or passages of the source.
Target: recombinant human Nav1.7 (Homo sapiens (Human), UniProt Q15858)
Test: FRET-based membrane potential assay, recombinant human sodium channel Nav1.7
Assay type: cell-based
Conditions: read-out: FRET-Membrane Potential Nav1.7 IC50
Procedure, shortened: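 Channel activation used veratridine at its EC80, set by a dilution curve each experiment, together with Leiurus scorpion venom, added 3 min after compound. Membrane-potential ratio signals from FLIPR Tetra in HEPES-buffered HBSS were fitted to a four-parameter Hill equation for percent inhibition and IC50.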

[1] = HEK293 cells stably expressing recombinant human Nav1.7, veratridine + scorpion venom depolarization

Chain of recombinant human Nav1.7 (Q15858 whole entry): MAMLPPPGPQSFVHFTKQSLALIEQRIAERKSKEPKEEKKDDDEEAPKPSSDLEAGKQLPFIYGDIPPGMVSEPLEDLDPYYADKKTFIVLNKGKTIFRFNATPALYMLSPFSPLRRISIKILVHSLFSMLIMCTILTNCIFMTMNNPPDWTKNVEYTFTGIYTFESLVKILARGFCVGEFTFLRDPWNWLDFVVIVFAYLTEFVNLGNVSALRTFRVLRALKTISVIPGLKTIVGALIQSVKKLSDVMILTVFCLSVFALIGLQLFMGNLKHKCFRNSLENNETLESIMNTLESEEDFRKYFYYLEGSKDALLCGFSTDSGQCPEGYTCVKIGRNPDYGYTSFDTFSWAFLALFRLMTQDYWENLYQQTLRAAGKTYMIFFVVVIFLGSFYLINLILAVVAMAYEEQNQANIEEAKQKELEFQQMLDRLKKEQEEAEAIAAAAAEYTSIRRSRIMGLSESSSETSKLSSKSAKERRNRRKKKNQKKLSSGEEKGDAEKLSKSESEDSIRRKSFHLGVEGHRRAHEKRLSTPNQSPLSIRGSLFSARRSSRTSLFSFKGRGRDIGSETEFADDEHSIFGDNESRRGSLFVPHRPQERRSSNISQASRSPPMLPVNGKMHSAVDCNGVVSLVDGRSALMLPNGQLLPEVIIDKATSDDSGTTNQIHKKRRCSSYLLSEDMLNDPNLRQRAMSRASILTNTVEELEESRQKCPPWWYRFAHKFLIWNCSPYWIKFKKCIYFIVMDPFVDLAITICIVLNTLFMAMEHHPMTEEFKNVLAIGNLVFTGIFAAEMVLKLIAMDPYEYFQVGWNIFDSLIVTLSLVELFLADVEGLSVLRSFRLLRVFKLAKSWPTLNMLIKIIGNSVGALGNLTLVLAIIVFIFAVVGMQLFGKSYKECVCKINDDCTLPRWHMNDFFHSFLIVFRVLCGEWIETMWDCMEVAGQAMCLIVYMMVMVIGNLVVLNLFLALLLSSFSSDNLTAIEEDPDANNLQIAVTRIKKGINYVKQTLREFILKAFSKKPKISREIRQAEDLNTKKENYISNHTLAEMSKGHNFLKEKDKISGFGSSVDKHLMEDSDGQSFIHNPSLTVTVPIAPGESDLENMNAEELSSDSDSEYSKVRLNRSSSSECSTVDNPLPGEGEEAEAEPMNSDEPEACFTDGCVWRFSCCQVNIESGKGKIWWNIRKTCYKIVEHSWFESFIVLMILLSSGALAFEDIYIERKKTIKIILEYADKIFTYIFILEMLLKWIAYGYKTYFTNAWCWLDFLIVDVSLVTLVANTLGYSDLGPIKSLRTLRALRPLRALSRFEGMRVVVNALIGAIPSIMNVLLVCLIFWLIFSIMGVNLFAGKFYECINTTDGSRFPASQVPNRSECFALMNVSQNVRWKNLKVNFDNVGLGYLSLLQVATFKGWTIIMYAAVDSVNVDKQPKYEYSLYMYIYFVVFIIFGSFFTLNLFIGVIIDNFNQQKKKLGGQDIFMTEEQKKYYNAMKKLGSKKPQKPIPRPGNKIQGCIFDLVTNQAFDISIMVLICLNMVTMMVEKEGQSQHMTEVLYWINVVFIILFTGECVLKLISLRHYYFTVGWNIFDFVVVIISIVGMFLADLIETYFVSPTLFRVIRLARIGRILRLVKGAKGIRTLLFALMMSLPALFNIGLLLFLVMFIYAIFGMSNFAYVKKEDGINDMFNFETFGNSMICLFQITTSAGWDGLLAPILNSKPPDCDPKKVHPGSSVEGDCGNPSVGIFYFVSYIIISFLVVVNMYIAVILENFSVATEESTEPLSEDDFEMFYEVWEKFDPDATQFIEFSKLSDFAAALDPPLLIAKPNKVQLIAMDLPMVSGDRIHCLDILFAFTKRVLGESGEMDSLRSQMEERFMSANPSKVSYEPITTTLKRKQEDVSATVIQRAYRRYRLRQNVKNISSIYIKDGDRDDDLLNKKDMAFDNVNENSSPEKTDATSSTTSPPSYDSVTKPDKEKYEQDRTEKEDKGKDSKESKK

Row | Compound | IC50 [µM] | IC50 [1] [µM]
1 | N#Cc1ccc(Oc2ccc3nc(C(=O)Nc4ccc5cn[nH]c5c4)ccc3c2)cc1 [Example 84, 6-(4-cyanophenoxy)-N-(1H-indazol-6-yl)quinoline-2-carboxamide] | > 20 | 
2 | O=C(NCCC(=O)N1CCOCC1)c1ccc2cc(Oc3ccc(C(F)(F)F)cn3)ccc2n1 [Example 444, N-[3-(morpholin-4-yl)-3-oxopropyl]-6-{[5-(trifluoromethyl)pyridin-2-yl]oxy}quinoline-2-carboxamide] |  | 1.4
3 | O=C(c1ccc2cc(Oc3ccc(C(F)(F)F)cn3)ccc2n1)N1CC2(CCCOC2)C1 [Example 533, 6-oxa-2-azaspiro[3.5]non-2-yl(6-{[5-(trifluoromethyl)pyridin-2-yl]oxy}quinolin-2-yl)methanone] |  | 2.4
4 | O=C1CC(NC(=O)c2ccc3cc(Oc4ccc(C(F)(F)F)nc4)ccc3n2)C1 [Example 556, N-(3-oxocyclobutyl)-6-{[6-(trifluoromethyl)pyridin-3-yl]oxy}quinoline-2-carboxamide] | 2.81 | 
5 | O=C(c1ccc2cc(Oc3ccc(C(F)(F)F)cn3)ccc2n1)N1CC[C@H](O)C1 [Example 283, [(3S)-3-hydroxypyrrolidin-1-yl](6-{[5-(trifluoromethyl)pyridin-2-yl]oxy}quinolin-2-yl)methanone] |  | 10.9
6 | O=C(NCCc1ccccn1)c1ccc2cc(Oc3ccc(C(F)(F)F)cn3)ccc2n1 [Example 606, N-[2-(pyridin-2-yl)ethyl]-6-{[5-(trifluoromethyl)pyridin-2-yl]oxy}quinoline-2-carboxamide] |  | 0.856
7 | O=C(c1ccc2cc(Oc3ccc(C(F)(F)F)cn3)ccc2n1)N1CC[C@H](O)[C@H]1CO [Example 304, [(2R,3S)-3-hydroxy-2-(hydroxymethyl)pyrrolidin-1-yl](6-{[5-(trifluoromethyl)pyridin-2-yl]oxy}quinolin-2-yl)methanone] |  | > 20
8 | O=C(c1ccc2cc(Oc3ccc(C(F)(F)F)cn3)ccc2n1)N1CCNCC(F)C1 (stereo not shown) [Example 406, (6-fluoro-1,4-diazepan-1-yl)(6-{[5-(trifluoromethyl)pyridin-2-yl]oxy}quinolin-2-yl)methanone] |  | 1.06
9 | {2-[(dimethylamino)methyl]morpholin-4-yl}(6-{[5-(trifluoromethyl)pyridin-2-yl]oxy}quinolin-2-yl)methanone [Example 374] |  | 0.97
10 | O=C(NC1CCSCC1)c1ccc2cc(Oc3ccc(C(F)(F)F)cn3)ccc2n1 [Example 400, N-(tetrahydro-2H-thiopyran-4-yl)-6-{[5-(trifluoromethyl)pyridin-2-yl]oxy}quinoline-2-carboxamide] |  | 1.22
11 | O=C(c1ccc2cc(Oc3ccc(C(F)(F)F)cn3)ccc2n1)N(C1CCOCC1)C1CCOCC1 [Example 376, N,N-di(tetrahydro-2H-pyran-4-yl)-6-{[5-(trifluoromethyl)pyridin-2-yl]oxy}quinoline-2-carboxamide] |  | 3.06
12 | O=C(c1ccc2cc(Oc3ccc(C(F)F)cn3)ccc2n1)N1CC(N2CCOCC2)C1 [Example 429, (6-{[5-(difluoromethyl)pyridin-2-yl]oxy}quinolin-2-yl) [3-(morpholin-4-yl)azetidin-1-yl]methanone] | 13.8 | 
13 | CCN1CC(NC(=O)c2ccc3cc(Oc4ccc(C(F)(F)F)nc4)ccc3n2)CC1=O (stereo not shown) [Example 523, N-(1-ethyl-5-oxopyrrolidin-3-yl)-6-{[6-(trifluoromethyl)pyridin-3-yl]oxy}quinoline-2-carboxamide] |  | 0.356
14 | O=C(c1ccc2cc(Oc3ccc(C(F)(F)F)cn3)ccc2n1)N1C[C@@H]2CN[C@@H]2C1 [Example 278, (1S,5S)-3,6-diazabicyclo[3.2.0]hept-3-yl(6-{[5-(trifluoromethyl)pyridin-2-yl]oxy}quinolin-2-yl)methanone] | 3.72 | 
15 | NCCNC(=O)c1ccc2cc(Oc3ccc(C(F)(F)F)cn3)ccc2n1 [Example 338, N-(2-aminoethyl)-6-{[5-(trifluoromethyl)pyridin-2-yl]oxy}quinoline-2-carboxamide] |  | 0.984
16 | O=C(c1ccc2cc(Oc3ccc(C(F)(F)F)cn3)ccc2n1)N1CCCCCC1 [Example 238, azepan-1-yl(6-{[5-(trifluoromethyl)pyridin-2-yl]oxy}quinolin-2-yl)methanone] |  | 1.54
17 | CC(C)(O)CNC(=O)c1ccc2cc(Oc3ccc(C#N)cc3)ccc2n1 [Example 122, 6-(4-cyanophenoxy)-N-(2-hydroxy-2-methylpropyl)quinoline-2-carboxamide] |  | 2.49
18 | O=C(c1ccc2cc(Oc3ccc(C(F)(F)F)cn3)ccc2n1)N1CC2(C1)OCCO2 [Example 476, 5,8-dioxa-2-azaspiro[3.4]oct-2-yl(6-{[5-(trifluoromethyl)pyridin-2-yl]oxy}quinolin-2-yl)methanone] |  | 3.92
19 | CN1CCCN(C(=O)c2ccc3cc(Oc4ccc(C(F)(F)F)cn4)ccc3n2)CC1 [Example 260, (4-methyl-1,4-diazepan-1-yl)(6-{[5-(trifluoromethyl)pyridin-2-yl]oxy}quinolin-2-yl)methanone] |  | 1.04

Row | Compound | IC50 [µM] | IC50 [1] [µM]
20 | CCOC(=O)N1CCN(C(=O)c2ccc3cc(Oc4ccc(C(F)(F)F)cn4)ccc3n2)CC1 [Example 289, ethyl 4-[(6-{[5-(trifluoromethyl)pyridin-2-yl]oxy}quinolin-2-yl)carbonyl]piperazine-1-carboxylate] |  | 3.91
21 | C[C@@H]1N(C(=O)c2ccc3cc(Oc4ccc(C(F)(F)F)cn4)ccc3n2)CC1(C)C [Example 205, (6-{[5-(trifluoromethyl)pyridin-2-yl]oxy}quinolin-2-yl)[(2S)-2,3,3-trimethylazetidin-1-yl]methanone] |  | 3.17
22 | O=C(c1ccc2cc(Oc3ccc(C(F)(F)F)nc3)ccc2n1)N1CCN[C@H](CO)C1 [Example 545, [(3S)-3-(hydroxymethyl)piperazin-1-yl](6-{[6-(trifluoromethyl)pyridin-3-yl]oxy}quinolin-2-yl)methanone] |  | 3.7
23 | O=C(c1ccc2cc(Oc3nnc(C(F)(F)F)s3)ccc2n1)N1CCNCC1 [Example 320, piperazin-1-yl(6-{[5-(trifluoromethyl)-1,3,4-thiadiazol-2-yl]oxy}quinolin-2-yl)methanone] |  | 17.1
24 | CS(=O)(=O)NC1CCN(C(=O)c2ccc3cc(Oc4ccc(C(F)(F)F)cn4)ccc3n2)CC1 [Example 408, N-{1-[(6-{[5-(trifluoromethyl)pyridin-2-yl]oxy}quinolin-2-yl)carbonyl]piperidin-4-yl}methanesulfonamide] |  | > 20
25 | COCO[C@H]1CN(C(=O)c2ccc3cc(Oc4ccc(C(F)(F)F)cn4)ccc3n2)C[C@H]1O (relative stereo) [Example 368, [cis-3-hydroxy-4-(methoxymethoxy)pyrrolidin-1-yl](6-{[5-(trifluoromethyl)pyridin-2-yl]oxy}quinolin-2-yl)methanone] |  | 1.25
26 | CC(C)(O)CNC(=O)c1ccc2cc(Oc3ccc(C(F)F)cn3)ccc2n1 [Example 434, 6-{[5-(difluoromethyl)pyridin-2-yl]oxy}-N-(2-hydroxy-2-methylpropyl)quinoline-2-carboxamide] |  | 5.58
27 | O=C(NC1CC2CCC(C1)N2)c1ccc2cc(Oc3ccc(C(F)(F)F)cn3)ccc2n1 (stereo not shown) [Example 267, N-(8-azabicyclo[3.2.1]oct-3-yl)-6-{[5-(trifluoromethyl)pyridin-2-yl]oxy}quinoline-2-carboxamide] | 10.2 | 
28 | O=C(c1ccc2cc(Oc3ccc(C(F)(F)F)cn3)ccc2n1)N1CCN(c2ccc(Cl)cn2)CC1 [Example 272, [4-(5-chloropyridin-2-yl)piperazin-1-yl](6-{[5-(trifluoromethyl)pyridin-2-yl]oxy}quinolin-2-yl)methanone] |  | 2.99
29 | O=C(c1ccc2cc(Oc3ccc(C(F)(F)F)cn3)ccc2n1)N1CC[C@@H](O)C1 [Example 282, [(3R)-3-hydroxypyrrolidin-1-yl](6-{[5-(trifluoromethyl)pyridin-2-yl]oxy}quinolin-2-yl)methanone] |  | 8.52
30 | O=C(NCC(=O)N1CC(O)C1)c1ccc2cc(Oc3ccc(C(F)(F)F)cn3)ccc2n1 [Example 566, N-[2-(3-hydroxyazetidin-1-yl)-2-oxoethyl]-6-{[5-(trifluoromethyl)pyridin-2-yl]oxy}quinoline-2-carboxamide] | 2.37 | 
31 | O=C(NC1CCS(=O)(=O)C1)c1ccc2cc(Oc3ncc(C(F)(F)F)cc3Cl)ccc2n1 (stereo not shown) [Example 154, 6-{[3-chloro-5-(trifluoromethyl)pyridin-2-yl]oxy}-N-(1,1-dioxidotetrahydrothiophen-3-yl)quinoline-2-carboxamide] |  | 2.32
32 | O=C(NCc1ccccn1)c1ccc2cc(Oc3ccc(C(F)(F)F)cn3)ccc2n1 [Example 151, N-(pyridin-2-ylmethyl)-6-{[5-(trifluoromethyl)pyridin-2-yl]oxy}quinoline-2-carboxamide] |  | 0.792
33 | O=C(NCC(=O)N1CCC(F)(F)C1)c1ccc2cc(Oc3ccc(C(F)(F)F)cn3)ccc2n1 [Example 565, N-[2-(3,3-difluoropyrrolidin-1-yl)-2-oxoethyl]-6-{[5-(trifluoromethyl)pyridin-2-yl]oxy}quinoline-2-carboxamide] |  | 3.43
34 | O=C(c1ccc2cc(Oc3ccc(C(F)(F)F)cn3)ccc2n1)N1CCSCC1 [Example 221, thiomorpholin-4-yl(6-{[5-(trifluoromethyl)pyridin-2-yl]oxy}quinolin-2-yl)methanone] | 2.79 | 
35 | O=C(c1ccc2cc(Oc3ccc(C(F)(F)F)cn3)ccc2n1)N1CCCCC1 [Example 297, piperidin-1-yl(6-{[5-(trifluoromethyl)pyridin-2-yl]oxy}quinolin-2-yl)methanone] |  | 7.99
36 | O=C(NC1CCC(F)(F)C1)c1ccc2cc(Oc3ccc(C(F)(F)F)cn3)ccc2n1 (stereo not shown) [Example 485, N-(3,3-difluorocyclopentyl)-6-{[5-(trifluoromethyl)pyridin-2-yl]oxy}quinoline-2-carboxamide] |  | 3.14
37 | N#Cc1ccc(Oc2ccc3nc(C(=O)N[C@@H]4CCS(=O)(=O)C4)ccc3c2)cc1 [Example 160, 6-(4-cyanophenoxy)-N-[(3R)-1,1-dioxidotetrahydrothiophen-3-yl]quinoline-2-carboxamide] | 0.71 | 

From patent US9452986B2, “6-heteroaryloxy- or 6-aryloxy-quinoline-2-carboxamides and method of use” (AbbVie Inc., priority 2014, dated 2016)
